This passage reports IC50 results from patent US20090124607A1, “Novel Bicyclic Sulfonamides for Use as Glucocorticoid Receptor Modulators in the Treatment of Inflammatory Diseases” (priority 2005, published 2009).

pIC50: −log10 of the molar value.

The test deals with T1, recombinant human GR (Homo sapiens, UniProt P04150).
T1 construct: purchased Panvera/Invitrogen P2812 (kit P2893)
T1 sequence (P04150 1-777): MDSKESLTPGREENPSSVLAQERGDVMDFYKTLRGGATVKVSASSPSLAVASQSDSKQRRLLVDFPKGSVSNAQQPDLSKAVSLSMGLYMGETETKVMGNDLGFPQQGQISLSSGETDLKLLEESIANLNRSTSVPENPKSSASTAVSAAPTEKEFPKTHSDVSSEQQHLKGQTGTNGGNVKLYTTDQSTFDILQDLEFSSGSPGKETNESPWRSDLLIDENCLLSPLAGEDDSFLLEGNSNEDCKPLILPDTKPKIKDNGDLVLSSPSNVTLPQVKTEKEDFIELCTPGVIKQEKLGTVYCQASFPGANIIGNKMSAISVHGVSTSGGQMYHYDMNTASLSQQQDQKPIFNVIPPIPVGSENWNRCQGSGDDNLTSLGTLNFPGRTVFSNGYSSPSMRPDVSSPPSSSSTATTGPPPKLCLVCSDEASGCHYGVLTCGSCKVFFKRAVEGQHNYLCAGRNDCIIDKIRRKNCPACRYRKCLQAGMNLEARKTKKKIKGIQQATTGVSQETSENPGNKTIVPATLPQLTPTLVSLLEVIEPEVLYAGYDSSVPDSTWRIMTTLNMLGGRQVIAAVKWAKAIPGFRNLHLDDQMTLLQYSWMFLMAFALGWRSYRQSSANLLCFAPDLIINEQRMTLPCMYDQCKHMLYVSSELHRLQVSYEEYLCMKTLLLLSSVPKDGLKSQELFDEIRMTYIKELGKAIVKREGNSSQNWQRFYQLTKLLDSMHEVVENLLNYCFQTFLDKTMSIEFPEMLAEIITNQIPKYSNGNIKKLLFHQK
Nature of the test: Human Glucocorticoid Receptor (GR) Assay, fluorescence polarization (GRhuFL_FP_v2, GR-binders). In kind it is binding. As to the method: Human Glucocorticoid Receptor (GR) Assay
The assay is based on a commercial kit from Panvera/Invitrogen (Part number P2893). The assay technology is fluorescence polarization. […] The GR and Stabilizing Peptide reagents are stored at −70° C. while the GS Red is stored at −20° C. Also included in the kit are 1M DTT (Panvera, Part number P2325, stored at −20° C.) and GR Screening buffer 10× (Panvera, Part number P2814, stored at −70° C. initially but once thawed stored at room temperature). Avoid repeated freeze/thaws for all reagents. The GR Screening buffer 10× comprises 100 mM potassium phosphate, 200 mM sodium molybdate, 1 mM EDTA and 20% DMSO.
0% control was 100% DMSO and 100% control was 10 μM Dexamethasone. Background solution (8 μL; assay buffer 10×, Stabilizing Peptide, DTT and ice cold MQ water) was added to the background wells. GS Red solution (7 μL; assay buffer 10×, Stabilizing Peptide, DTT, GS Red and ice cold water) was added to all wells except background wells. GR solution (7 μL; assay buffer 10×, Stabilizing Peptide, DTT, GR and ice cold water) was added to all wells. The plate was sealed and incubated in a dark at room temperature for 2 hours.
Usually pIC50 stands for −log10 of the IC50, conventionally taken in molar units. As for `Cc1nn(C2CCCC2)c(C)c1S(=O)(=O)N[C@@H](C)CNc1cccc2c1cnn2-c1cncnc1` [Example 29, 1-Cyclopentyl-3,5-dimethyl-N-{(1S)-1-methyl-2-[(1-pyrimidin-5-yl-1H-indazol-4-yl)amino]ethyl}-1H-pyrazole-4-sulfonamide], the pIC50 was 8.24.

In the case of `Cc1nn(C2CCCC2)c(C)c1S(=O)(=O)N[C@@H](C)CNc1cccc2c1cnn2-c1ccc(C#N)cc1` [Example 30, N-((1S)-2-{[1-(4-Cyanophenyl)-1H-indazol-4-yl]amino}-1-methylethyl)-1-cyclopentyl-3,5-dimethyl-1H-pyrazole-4-sulfonamide], the pIC50 was 8.33.

On to `COc1cncc(-n2ncc3c(NC[C@H](C)NS(=O)(=O)c4c(C)nn(C5CCCC5)c4C)cccc32)c1` [Example 31, 1-Cyclopentyl-N-((1S)-2-{[1-(5-methoxypyridin-3-yl)-1H-indazol-4-yl]amino}-1-methylethyl)-3,5-dimethyl-1H-pyrazole-4-sulfonamide], for which the negative-log IC50 (pIC50) was 7.36.

For the molecule `Cc1cc(C)c(S(=O)(=O)N[C@@H](C)CNc2c(F)ccc3c2cnn3-c2ccc(F)cc2)c(C)c1` [Example 32, N-((1S)-2-{[5-Fluoro-1-(4-fluorophenyl)-1H-indazol-4-yl]amino}-1-methylethyl)-2,4,6-trimethylbenzenesulfonamide], the pIC50 was 8.38.

As to `Cc1cc(C)c(S(=O)(=O)N[C@@H](C)CNc2ccc(F)c3c2cnn3-c2ccc(F)cc2)c(C)c1` [Example 33, N-((1S)-2-{[7-Fluoro-1-(4-fluoro-phenyl)-1H-indazol-4-yl]amino}-1-methylethyl)-2,4,6-trimethylbenzenesulfonamide], the pIC50 is 8.26.

As for `Cc1cc(C)c(S(=O)(=O)N[C@@H](C)CNc2ncnc3c2cnn3-c2ccccc2)c(C)c1` [Example 34, 2,4,6-Trimethyl-N-{(1S)-1-methyl-2-[(1-phenyl-1H-pyrazolo[3,4-d]pyrimidin-4-yl)amino]ethyl}benzenesulfonamide], the pIC50 is 5.28.

Consider `Cc1cc(C)c(S(=O)(=O)N[C@H](CNc2cccc3c2cnn3-c2ccc(F)cc2)C(C)C)c(C)c1` [Example 35, N-[(1S)-1-({[1-(4-Fluorophenyl)-1H-indazol-4-yl]amino}methyl)-2-methylpropyl]-2,4,6-trimethylbenzenesulfonamide], for which the pIC50 is 8.10.

`Cc1cc(C)c(S(=O)(=O)NC(C)CSc2cccc3c2cnn3-c2ccc(F)cc2)c(C)c1` (stereo not shown) [Example 36, N-[2-[1-(4-Fluorophenyl)indazol-4-yl]sulfanyl-1-methylethyl]-2,4,6-trimethyl-benzenesulfonamide]: the pIC50 was 8.12.

With `Cc1cc(C)c(S(=O)(=O)NC(C)CS(=O)(=O)c2cccc3c2cnn3-c2ccc(F)cc2)c(C)c1` (stereo not shown) [Example 37, N-[2-[1-(4-Fluorophenyl)indazol-4-yl]sulfonyl-1-methyl-ethyl]-2,4,6-trimethyl-benzenesulfonamide], the pIC50 was 6.10.

As to `Cc1cc(C)c(S(=O)(=O)NC(C)CCc2cccc3c2cnn3-c2ccc(F)cc2)c(C)c1` (stereo not shown) [Example 38, N-{3-[1-(4-Fluorophenyl)-1H-indazol-4-yl]-1-methylpropyl}-2,4,6-trimethylbenzenesulfonamide], the negative-log IC50 (pIC50) was 7.35.

On to `Cc1cc(C)c(S(=O)(=O)N[C@@H](C)CCc2cccc3c2cnn3-c2ccc(F)cc2)c(C)c1` [Example 39, N-{(1S)-3-[1-(4-Fluorophenyl)-1H-indazol-4-yl]-1-methylpropyl}-2,4,6-trimethylbenzenesulfonamide], for which the pIC50 is 8.34.

Consider `Cc1cc(C)c(S(=O)(=O)NC[C@H](C)Nc2cccc3c2cnn3-c2ccc(F)cc2)c(C)c1` [Example 40, N-((2S)-2-{[1-(4-Fluorophenol)-1H-indazol-4-yl]amino}propyl)-2,4,6-trimethylbenzenesulfonamide], for which the pIC50 was 8.19.

In the case of `Cc1n[nH]c(C)c1S(=O)(=O)N[C@@H](C)COc1cccc2c1cnn2-c1ccc(F)cc1` [Example 41, N-((1S)-2-{[1-(4-Fluorophenyl)-1H-indazol-4-yl]oxy}-1-methylethyl)-3,5-dimethyl-1H-pyrazole-4-sulfonamide], the pIC50 was 8.82.
